This is an account of results in ChEMBL document CHEMBL1145121, “Docking studies on alphavbeta3 integrin ligands: pharmacophore refinement and implications for drug design” (J Med Chem, 2003).

The target in the assay is Integrin alpha-V/beta-3 (Homo sapiens, UniProt P05106+P06756). Briefly: Inhibition of binding to alphaV-beta3 integrin. It is filed as protein-complex assay.
Integrin alpha-V/beta-3, sequence (P05106 27-788 limits assumed): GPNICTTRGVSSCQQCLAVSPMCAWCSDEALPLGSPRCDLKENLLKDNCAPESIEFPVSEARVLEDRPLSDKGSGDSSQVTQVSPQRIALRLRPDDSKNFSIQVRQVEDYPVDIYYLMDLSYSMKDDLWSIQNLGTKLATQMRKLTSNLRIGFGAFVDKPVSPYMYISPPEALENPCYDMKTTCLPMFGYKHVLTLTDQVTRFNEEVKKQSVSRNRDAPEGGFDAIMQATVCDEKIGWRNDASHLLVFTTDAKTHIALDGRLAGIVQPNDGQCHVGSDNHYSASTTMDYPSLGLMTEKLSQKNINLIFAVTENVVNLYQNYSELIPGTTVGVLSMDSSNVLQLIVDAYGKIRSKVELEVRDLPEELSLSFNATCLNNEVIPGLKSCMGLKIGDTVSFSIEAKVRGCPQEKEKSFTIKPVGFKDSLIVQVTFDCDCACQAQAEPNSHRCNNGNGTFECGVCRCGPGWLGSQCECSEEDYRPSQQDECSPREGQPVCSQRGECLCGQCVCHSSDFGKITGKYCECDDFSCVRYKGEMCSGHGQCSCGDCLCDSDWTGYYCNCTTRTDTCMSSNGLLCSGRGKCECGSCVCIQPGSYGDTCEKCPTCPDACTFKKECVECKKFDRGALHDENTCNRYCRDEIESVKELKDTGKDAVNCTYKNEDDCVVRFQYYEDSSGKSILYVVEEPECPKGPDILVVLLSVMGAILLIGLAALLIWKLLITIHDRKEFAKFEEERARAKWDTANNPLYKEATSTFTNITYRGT
Integrin alpha-V/beta-3, sequence (P06756 31-889 limits assumed): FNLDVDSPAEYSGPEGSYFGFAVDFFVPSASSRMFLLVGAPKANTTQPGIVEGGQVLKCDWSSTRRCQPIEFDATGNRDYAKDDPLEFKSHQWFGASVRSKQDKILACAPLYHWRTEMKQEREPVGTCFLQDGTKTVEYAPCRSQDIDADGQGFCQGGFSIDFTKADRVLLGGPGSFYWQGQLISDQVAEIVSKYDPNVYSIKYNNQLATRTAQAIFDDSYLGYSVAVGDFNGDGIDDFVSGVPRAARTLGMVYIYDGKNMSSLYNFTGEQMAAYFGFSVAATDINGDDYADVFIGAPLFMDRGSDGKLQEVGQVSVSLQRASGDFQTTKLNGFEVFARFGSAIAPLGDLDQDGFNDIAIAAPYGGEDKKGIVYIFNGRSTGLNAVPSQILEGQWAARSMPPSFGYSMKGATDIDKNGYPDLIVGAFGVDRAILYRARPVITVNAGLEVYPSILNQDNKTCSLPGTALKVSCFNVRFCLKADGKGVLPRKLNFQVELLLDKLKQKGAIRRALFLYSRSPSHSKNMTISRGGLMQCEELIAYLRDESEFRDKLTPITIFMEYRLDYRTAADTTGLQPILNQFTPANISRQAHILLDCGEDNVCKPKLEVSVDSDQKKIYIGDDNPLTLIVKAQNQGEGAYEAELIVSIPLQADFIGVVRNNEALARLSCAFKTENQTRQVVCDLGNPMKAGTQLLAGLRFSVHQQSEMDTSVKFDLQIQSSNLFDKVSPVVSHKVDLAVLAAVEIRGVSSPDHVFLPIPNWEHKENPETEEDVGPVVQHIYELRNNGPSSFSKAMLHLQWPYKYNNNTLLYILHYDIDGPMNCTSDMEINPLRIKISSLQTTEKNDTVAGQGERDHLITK
Integrin alpha-V/beta-3, sequence (P06756 891-1048 limits assumed): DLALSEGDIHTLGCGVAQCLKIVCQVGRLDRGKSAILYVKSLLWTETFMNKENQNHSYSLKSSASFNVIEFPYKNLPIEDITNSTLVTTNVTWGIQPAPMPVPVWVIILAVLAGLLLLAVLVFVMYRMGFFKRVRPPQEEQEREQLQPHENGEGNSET
As for `CC(C)C[C@H]1C(=O)N[C@@H](CCCNC(=N)N)C(=O)NCC(=O)N[C@@H](CC(=O)O)C(=O)N[C@@H]2CCN1C2=O`, the IC50 (as a rule, the concentration that inhibits the measured activity by half) was 0.8 nM.

With `CC(C)C[C@H]1NC(=O)[C@H](CCCN=C(N)N)NC(=O)CNC(=O)[C@@H](CC(=O)O)NC(=O)[C@@H](Cc2ccccc2)NC1=O`, the IC50 was 40 nM.

In the case of `CC(C)C[C@H]1C(=O)N[C@@H](CCCN=C(N)N)C(=O)NCC(=O)N[C@@H](CC(=O)O)C(=O)N[C@H](Cc2ccccc2)C(=O)N1C`, the 50% inhibitory concentration (IC50) was determined as 0.6 nM. This IC50 is about 67-fold lower than that of the compound before.

`NC(=O)[C@@H](CC(=O)O)NC(=O)NNC(=O)c1cccc(N=C(N)N)c1` had an IC50 of 7200 nM.

Take `N=C(N)Nc1cccc(C(=O)NNC(=O)N[C@@H](CC(=O)O)C(N)=O)c1`: the half-maximal inhibitory concentration (IC50) worked out at 150 nM.

`N=C(N)Nc1cccc(C(=O)NNC(=O)NC(CC(=O)O)c2ccccc2)c1` (stereo unspecified): the concentration for half-maximal inhibition (IC50) was determined as 2.6 nM. Against the preceding compound, the IC50 is about 58-fold lower.
